Results reported in patent publication US4081433A, “D-Nle^4 -somatostatin and analogues thereof” (American Home Products Corporation, priority 1977, dated 1978).
Bridge positions count the residues as written; N and C are the ends. Square brackets hold non-standard residues; d marks the D form. Peptide text beside a SMILES is read from it. dNle = CCCC[C@@H](N)C(=O)O

Tested on: growth hormone
Experiment: Arginine-stimulated growth hormone secretion in Nembutal-anaesthetised rats
Type: in vivo
Conditions: albino male rats, 1 mg/kg subcutaneous
Protocol: The activity of the product of the preceding preparatory example, (D-Nle^4)Somatostatin, was determined by the following procedure:
Albino male rats were administered Nembutal intraperitoneally at a dose of 50 milligrams per kilogram. Fifteen minutes later a subcutaneous injection of the test compound or physiological saline was administered. Ten minutes later 0.5 milliliters of arginine (300 millligrams per milliliter, pH 7.2) is injected into the heart. Five minutes after receipt of the arginine the rats are decapitated and blood is collected into trasylol-EDTA.

## CCCC[C@H]1NC(=O)[C@@H](NC(=O)CNC(=O)[C@H](C)N)CSSC[C@@H](C(=O)O)NC(=O)[C@H](CO)NC(=O)[C@H]([C@@H](C)O)NC(=O)[C@H](Cc2ccccc2)NC(=O)[C@H]([C@@H](C)O)NC(=O)[C@H](CCCCN)NC(=O)[C@H](Cc2c[nH]c3ccccc23)NC(=O)[C@H](Cc2ccccc2)NC(=O)[C@H](Cc2ccccc2)NC(=O)[C@H](CC(N)=O)NC1=O [(D-Nle^4)Somatostatin, L-Alanyl-glycyl-L-cysteinyl-D-norleucyl-L-asparaginyl-L-phenylalanyl-L-phenylalanyl-L-tryptophyl-L-lysyl-L-threonyl-L-phenylalanyl-L-threonyl-L-seryl- L-cysteine cyclic (1.revreaction.14) disulfide] (H-AGC[dNle]NFFWKTFTSC-OH; disulfide 3-14)
  reducing secretion of growth hormone (in words): effective agent for reducing secretion of growth hormone
Arginine injected 10 min later, blood 5 min after arginine, control 208±52 ng/ml, p<0.05
  growth hormone in blood: 83 ± 23 ng/mL
